# Literature values in patent US7932083B2, “DNA participating in hydroxylation of macrolide compound” (priority 2003, dated 2011).
# Conditions: statement of prior art (WO02/060890)
smiles,measurement,value
CCC(O)C(C)C1OC1CC(C)(O)/C=C/C=C(\C)C1OC(=O)CC(O)CCC(C)(O)C(OC(C)=O)/C=C/C1C (stereo not shown) [11107D],antitumor activity,excellent antitumor activity
